The source of these data is patent publication US20120094939A1, “ANTI-VIRAL COMPOUNDS, COMPOSITIONS AND METHODS” (priority 2007, published 2012).

One data set relates to Huh7/Rep-Feo cells. The data set can be described thus: Primary HTS cell viability counter-screen (CellTiterGlo). It is filed as cell-based, human. The conditions noted are these: for C-CompZ, compositeZ score for cell viability assay: Table 2 antiviral hits of DOS set, approximately 10-50 μM, most at 33 μM, 48 hours. The procedure: Primary Screening-HTS. Information about the library of known bioactive compounds that was screened and the general automated HTS protocol is available at http://www.broad.harvard.edu/chembio/index.html (see FIG. 10 for list of primary HTS with known bioactives library). Based on the results of optimization experiments in the 384-well plate format, the general HTS protocol was adapted as follows. Unless otherwise indicated, cells were incubated at all times in a humidified environment with 5% CO2 at 37° C. The assay was initiated by plating 30 μL of medium containing 2000 cells/well into white 384-well opaque-bottom plates (Nunc, Rochester, N.Y.) using an automated plate filler (Bio-Tek uFiller; Winsooki, Vt.) and allowing the cells to adhere for 24 hours. One hundred nL of compound stock solutions in DMSO was transferred from stock plates into the 384-well assay plates using an automated pin-based compound transfer robot (CyBio CyBi-Well vario; Woburn, Mass.). The final compound concentration in each well was estimated to be approximately 10-50 μM, with most compounds at 33 μM. The wells contained 0.33% DMSO by volume. The cells were then incubated for another 48 hours. The luminescent signal from each plate was detected using an automated plate reader (Perkin-Elmer Envision 1; Wellesley, Mass.). This screen was performed in duplicate. For negative controls, entire DMSO-treated control plates were employed, in addition to DMSO-only control wells that were incorporated into each compound assay plate. The cells were assayed for luciferase activity using the Bright-Glo Luciferase assay system (Promega), following the manufacturer's instructions. As a counter-screen, cell viability was assessed using the CellTiterGlo Luminescent cell viability assay (Promega) following the manufacturer's instructions.
Computational Data Analysis-Primary Screening. For each replicate, a mock-treatment distribution based on the total population of mock (DMSO) controls in that replicate was built (FIG. 11). Each compound was independently assigned a sign (ie, “+” or “−”) Z-score. Z-scores are calculated by dividing each background-subtracted, compound-treated well by the global standard deviation. A global standard deviation of the background-subtracted, mock-treated wells is calculated over the entire experiment. This distribution was determined to be consistent with experimental noise observed under cell-based assay conditions. The resulting collection of continuousvalued Z-scores represents the primary data set to be used for further analysis. The composite Z-score was calculated as a vector projection of each Z-score in duplicate onto an imaginary line of perfect reproducibility. Reproducibility is the cosine of the angle between each Z-score and that imaginary line; it is dimensionless and ranges from −1 to +1. […] The primary data were analyzed using the commercial software packages Pipeline Pilot (SciTegic, San Diego, Calif.) and SpotFire (SpotFire, Inc., Somerville, Mass.). The means of the negative, DMSO-only controls were considered the zero point.
Primary Screening—HTS: Unless otherwise indicated, cells were incubated at all times in a humidified environment with 5% CO2 at 37° C. The assay was initiated by plating 30 μl of medium containing 2,000 cells/well into white 384-well opaque-bottom plates (Nunc; Rochester, N.Y.) using an automated plate filler (Bio-Tek μFiller; Winsooki, Vt.) and allowing the cells to adhere for 24 hours. 100 nl of compound stock solutions in DMSO were transferred from stock plates into the 384-well assay plates using an automated pin-based compound transfer robot (CyBio CyBi-Well vario; Woburn, Mass.). The final compound concentration in each well was estimated to be approximately 10-50 μM, with most compounds at 33 μM. The wells contained 0.33% DMSO by volume. The cells were then incubated for another 48 hours. […]
For orientation: Counterscreens check selectivity or assay interference.

In data set [1] the test system is Huh7/Rep-Feo HCV replicon (HCV RNA replication). It is filed as cell-based, Hepatitis C virus (strain HCV—N, genotype 1b). The conditions noted are these: approximately 10-50 μM, most at 33 μM; for R-CompZ, compositeZ score for reporter gene assay: Table 2 antiviral hits of DOS set, 48 hours.

For `CC(=O)OC[C@H]1O[C@H](CCO/N=C2/[C@H]3CCn4c(=O)n(-c5ccccc5)c(=O)n4[C@H]3[C@H](O)[C@@H]3O[C@H]23)C=C[C@@H]1OC(C)=O` [BUCMLD-B10A3], the “C-CompZ, compositeZ score for cell viability assay” value (“C-CompZ, compositeZ score” below) in the data set with Huh7/Rep-Feo cells is given as −1.8907. Besides, the “R-CompZ, compositeZ score for reporter gene assay” value (shortened to “R-CompZ, compositeZ score”) in data set [1] is reported as −4.6336.

`Cc1cc2c(nc1C)CCCN2CC(C)O/N=C1/[C@H]2CCn3c(=O)n(-c4ccccc4)c(=O)n3[C@H]2[C@H](O)[C@@H]2O[C@H]12` (stereo partly drawn) [BUCMLD-B10A5]: the “C-CompZ, compositeZ score” value in the data set with Huh7/Rep-Feo cells is given as 0.3574. Further, in data set [1], the “R-CompZ, compositeZ score” value was −3.0849.

Regarding `Cc1cc(C)c(-c2cc([C@H](C)O/N=C3/[C@H]4CCn5c(=O)n(-c6ccccc6)c(=O)n5[C@H]4[C@H](O)[C@@H]4O[C@H]34)on2)c(C)c1` [BUCMLD-B10A11], the “C-CompZ, compositeZ score” value in the data set on Huh7/Rep-Feo cells is recorded as −1.7178. Moreover, the “R-CompZ, compositeZ score” value in data set [1] is −4.7324.

`O=C1C2C=C(I)C(CC2OCCCCO)[C@@]12CO2` (stereo partly drawn) [SM_A5B3_2P141]: the “C-CompZ, compositeZ score” value in the data set on Huh7/Rep-Feo cells is listed as 0.6345. In data set [1], the “R-CompZ, compositeZ score” value was −2.5923.

Consider `O=C1C2(CO)C=C(Br)C(CC2c2ccccc2)[C@@]12CO2` (stereo partly drawn) [SM_A6B5_2P100], for which, in the data set on Huh7/Rep-Feo cells, the “C-CompZ, compositeZ score” value was −0.2965. Moreover, the “R-CompZ, compositeZ score” value in data set [1] is reported as −3.1341.

`COc1cc2c(cc1OC)-c1c/c(=N\c3c(C)cc(C)cc3C)n(C)c(=O)n1CC2` [trequinsin, reference compound]: the “cytotoxicity in the primary screen” value with Huh7/Rep-Feo cells (tested at 33 μM) was “cytotoxic”. Besides, in data set [1] (known bioactives library), the “primary screen hit result (in words)” value is “not identified as a hit”.
